The record followed here is PubChem BioAssay (NCI).

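These data come from cells grown in 96-well plates and exposed to compound for 48 hours at five concentrations. Definition used: TGI = concentration required for complete inhibition of growth.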 Some results are limits rather than exact numbers.

By TGI is commonly meant the concentration at which net growth stops. The low end stands for greater sensitivity of the cells, the high end for lower sensitivity of the cells.

Some test systems named below: KM12 colon; HCT-15 colon; HCC-2998 colon; UACC-257 melanoma; SN12C renal; MCF7 breast; MDA-N; SNB-19 CNS; IGROV1 ovarian; SR leukemia; SF-295 CNS; HT29 colon; U251 CNS; SF-539 CNS; UO-31 renal; HS 578T breast.
Holding throughout (experiment): DTP human tumour cell line panel, 48 h

`COc1ccc2c(c1)CCC1=CC3(CCC12C)SCCS3` (configuration not stated): the TGI in the experiment with KM12 colon, in the experiment with HCT-15 colon, with HCC-2998 colon, with UACC-257 melanoma, in the experiment on SN12C renal and in the experiment on MCF7 breast was above 10 µM throughout. Besides, the TGI in the experiment on MDA-N was 6.36 µM; with SNB-19 CNS, above 10 µM; in the experiment with IGROV1 ovarian, above 10 µM; in the experiment on SR leukemia, above 10 µM; in the experiment on SF-295 CNS it was above 10 µM; in the experiment on HT29 colon, above 10 µM. Moreover, in the experiment on U251 CNS, the TGI is above 10 µM.

Consider `Cn1c2cc(O)cc(O)c2c(=O)c2c([N+](=O)[O-])cccc21`, for which the TGI in the experiment on SF-539 CNS, with KM12 colon, with HCT-15 colon, in the experiment on HCC-2998 colon, in the experiment with UACC-257 melanoma and in the experiment on SN12C renal was above 100 µM in each case. Also, the TGI with SNB-19 CNS, in the experiment on IGROV1 ovarian, in the experiment with SR leukemia, in the experiment with SF-295 CNS, in the experiment on HT29 colon and in the experiment on U251 CNS was above 100 µM each time. This compound also had a total growth inhibition concentration (TGI) in the experiment with UO-31 renal above 100 µM.

In the case of `COC(=O)[C@@]12OC[C@]34C([C@@H](O)C1O)[C@@]1(C)CC(=O)C(OC(=O)/C=C(/c5ccccc5)C(F)(F)F)=C(C)C1C[C@H]3OC(=O)[C@H](O)[C@H]42` (some centres not stated), the concentration for total growth inhibition (TGI) in the experiment with SF-539 CNS is 13 µM; in the experiment on KM12 colon, above 50 µM; in the experiment on HCT-15 colon, above 50 µM; in the experiment with HCC-2998 colon it was 22.3 µM; in the experiment on UACC-257 melanoma it was above 50 µM; with SN12C renal, above 50 µM. Moreover, the TGI with SNB-19 CNS was 23.2 µM; with IGROV1 ovarian, 21.2 µM; in the experiment on SR leukemia, 19.4 µM; with SF-295 CNS, 28.1 µM; in the experiment with HT29 colon, 46.3 µM; in the experiment on U251 CNS, above 50 µM. The TGI with UO-31 renal is above 50 µM.

Turning to `COc1cc2c(cc1OC)C(N)CC2=O` (configuration not stated), the concentration for total growth inhibition (TGI) in the experiment with SF-539 CNS, in the experiment with KM12 colon, in the experiment with HCT-15 colon, in the experiment on HCC-2998 colon, in the experiment on UACC-257 melanoma and in the experiment on SN12C renal was above 100 µM throughout. Further, the TGI in the experiment on MCF7 breast, in the experiment on SNB-19 CNS, with IGROV1 ovarian, in the experiment with SR leukemia, in the experiment on SF-295 CNS and in the experiment with HT29 colon was above 100 µM throughout. Also, the TGI with HS 578T breast, in the experiment on U251 CNS and in the experiment with UO-31 renal was above 100 µM throughout.

Turning to `O=c1cc(-c2ccccc2)oc2cc(OCCSCCCCCCCCCCSCCOc3ccc4c(=O)cc(-c5ccccc5)oc4c3)ccc12`, the TGI with KM12 colon, with HCT-15 colon, in the experiment with HCC-2998 colon, with UACC-257 melanoma, with SN12C renal and with SNB-19 CNS was above 100 µM throughout. Besides, the TGI in the experiment on IGROV1 ovarian, in the experiment on SR leukemia, in the experiment on SF-295 CNS, in the experiment with HT29 colon, in the experiment on U251 CNS and with UO-31 renal was above 100 µM throughout.

As to `COc1ccc([C@@]23OC[C@@H]4[C@@H](OC[C@@H]42)c2cc(OC)c(OC)cc23)cc1OC`, the TGI with SF-539 CNS, in the experiment with KM12 colon, in the experiment with HCT-15 colon, in the experiment with HCC-2998 colon, in the experiment with MCF7 breast and in the experiment with SNB-19 CNS was above 100 µM each time. Besides, the TGI in the experiment with IGROV1 ovarian, in the experiment on SR leukemia, in the experiment on SF-295 CNS, in the experiment with U251 CNS and in the experiment with UO-31 renal was above 100 µM throughout.

Consider `COC(=O)c1ccc(Cc2ccc(C(=O)OC)o2)o1`, for which the TGI in the experiment with SF-539 CNS, with KM12 colon, with HCT-15 colon, in the experiment on HCC-2998 colon, in the experiment on UACC-257 melanoma and with SN12C renal was above 378 µM each time. The TGI in the experiment on SNB-19 CNS, with IGROV1 ovarian, in the experiment with SR leukemia, in the experiment with SF-295 CNS, in the experiment with HT29 colon and in the experiment with U251 CNS was above 378 µM in each case.

In the case of `O=c1cc(-c2ccc(Cl)cc2)oc2cc(OCCCOc3ccc4c(=O)cc(-c5ccc(Cl)cc5)oc4c3)ccc12`, the TGI with SF-539 CNS, with KM12 colon, in the experiment with HCT-15 colon, in the experiment with HCC-2998 colon, in the experiment with UACC-257 melanoma and in the experiment with SN12C renal was above 100 µM each time. Moreover, the TGI in the experiment on SNB-19 CNS, in the experiment on IGROV1 ovarian, with SR leukemia, in the experiment on SF-295 CNS, in the experiment with HT29 colon and with U251 CNS was above 100 µM each time.

With `O=C(O)CCCOc1cc(-c2ccccc2F)nc2cc3c(cc12)OCO3`, the TGI was 63.2 µM in the experiment with SF-539 CNS; above 100 µM in the experiment with KM12 colon; above 100 µM in the experiment with HCT-15 colon; above 100 µM in the experiment with HCC-2998 colon; above 100 µM with SN12C renal; above 100 µM with MCF7 breast. Further, the TGI was 4.45 µM in the experiment with MDA-N; 15.8 µM in the experiment on IGROV1 ovarian; above 100 µM in the experiment with SR leukemia; above 100 µM with HT29 colon; above 100 µM with U251 CNS.

In the case of `COc1cc2c(cc1OC)C(=O)C(C1=C(SC(=N)N)C(=O)c3cc(OC)c(OC)cc31)C2` (configuration not stated), the TGI in the experiment with SF-539 CNS, in the experiment with KM12 colon, in the experiment on HCT-15 colon, with HCC-2998 colon, in the experiment on UACC-257 melanoma and with SN12C renal was above 100 µM throughout. In addition, the total growth inhibition concentration (TGI) with SNB-19 CNS, with IGROV1 ovarian, in the experiment on SR leukemia, in the experiment on SF-295 CNS, in the experiment with HT29 colon and with U251 CNS was above 100 µM each time. Moreover, the TGI with UO-31 renal was above 100 µM.

As to `COc1cc(/C=C2/C(=O)N(C(=O)c3ccc(Cl)cc3)N=C2C)cc(OC)c1OC`, the TGI in the experiment on SF-539 CNS, with KM12 colon, with HCT-15 colon, with HCC-2998 colon, in the experiment on UACC-257 melanoma and in the experiment on SN12C renal was above 100 µM throughout. The TGI with SNB-19 CNS, with IGROV1 ovarian, in the experiment on SF-295 CNS, in the experiment with HT29 colon, with U251 CNS and in the experiment on UO-31 renal was above 100 µM in each case.
